Measurements: patent US10745377B2, “Piperidine or piperazine linked imidazole and triazole derivatives and methods of use” (MERCK SHARP & DOHME CORP., priority 2013, dated 2020)

Columns and labels:
Assay type in all cases: biochemical
CYP2D6 = target: T1, CYP2D6 (Homo sapiens, UniProt P10635); test: Cocktail assay for CYPs in human liver microsomes: CYP2D6 (dextromethorphan O-demethylation); conditions: human liver microsomes 0.1 mg/mL, 5 μM dextromethorphan, 10 min at 37° C., 6 concentrations up to 10 μM; read-out: IC50 (nM) CYP2D6
T1 construct: 0.1 mg/mL protein human liver microsomes (BD Gentest); tissue BD Gentest; host or cells: human liver microsomes

CYP2C9 = target: T2, CYP2C9 (Homo sapiens, UniProt P11712); test: Cocktail assay for CYPs in human liver microsomes: CYP2C9 (diclofenac 4′-hydroxylation); conditions: human liver microsomes 0.1 mg/mL, 5 μM diclofenac, 10 min at 37° C., 6 concentrations up to 10 μM; read-out: IC50 (nM) CYP2C9
T2 construct: 0.1 mg/mL protein human liver microsomes (BD Gentest); tissue BD Gentest; host or cells: human liver microsomes

CYP1A2 = target: T3, CYP1A2 (Homo sapiens, UniProt P05177); test: Cocktail assay for CYPs in human liver microsomes: CYP1A2 (phenacetin O-deethylation); conditions: human liver microsomes 0.1 mg/mL, 10 μM phenacetin, 10 min at 37° C., 6 concentrations up to 10 μM; read-out: IC50 (nM) CYP1A2
T3 construct: 0.1 mg/mL protein human liver microsomes (BD Gentest); tissue BD Gentest; host or cells: human liver microsomes
T3 sequence (P05177 1-516): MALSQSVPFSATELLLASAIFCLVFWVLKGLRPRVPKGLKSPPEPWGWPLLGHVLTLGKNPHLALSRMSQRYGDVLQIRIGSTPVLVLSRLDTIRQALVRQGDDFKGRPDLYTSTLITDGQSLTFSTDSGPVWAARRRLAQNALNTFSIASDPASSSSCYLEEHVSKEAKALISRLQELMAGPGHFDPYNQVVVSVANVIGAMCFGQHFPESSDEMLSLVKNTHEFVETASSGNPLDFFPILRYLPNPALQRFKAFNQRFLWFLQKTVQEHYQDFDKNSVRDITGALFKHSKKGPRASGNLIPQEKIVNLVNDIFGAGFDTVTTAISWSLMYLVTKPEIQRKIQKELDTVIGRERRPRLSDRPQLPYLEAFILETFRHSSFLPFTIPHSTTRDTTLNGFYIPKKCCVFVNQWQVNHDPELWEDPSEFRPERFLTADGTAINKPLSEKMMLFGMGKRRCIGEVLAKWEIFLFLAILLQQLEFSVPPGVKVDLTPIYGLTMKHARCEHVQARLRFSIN

CYP3A4 = target: T4, CYP3A4 (Homo sapiens, UniProt P08684); test: Cocktail assay for CYPs in human liver microsomes: CYP3A4 (midazolam 1′-hydroxylation); conditions: human liver microsomes 0.1 mg/mL, 2 μM midazolam, 10 min at 37° C., 6 concentrations up to 10 μM; read-out: IC50 (nM) CYP3A4
T4 construct: 0.1 mg/mL protein human liver microsomes (BD Gentest); tissue BD Gentest; host or cells: human liver microsomes

CYP2C19 = target: T5, CYP2C19 (Homo sapiens, UniProt P33261); test: Cocktail assay for CYPs in human liver microsomes: CYP2C19 (mephenytoin 4′-hydroxylation); conditions: human liver microsomes 0.1 mg/mL, 30 μM mephenytoin, 10 min at 37° C., 6 concentrations up to 10 μM; read-out: IC50 (nM) CYP2C19
T5 construct: 0.1 mg/mL protein human liver microsomes (BD Gentest); tissue BD Gentest; host or cells: human liver microsomes
T5 sequence (P33261 whole entry): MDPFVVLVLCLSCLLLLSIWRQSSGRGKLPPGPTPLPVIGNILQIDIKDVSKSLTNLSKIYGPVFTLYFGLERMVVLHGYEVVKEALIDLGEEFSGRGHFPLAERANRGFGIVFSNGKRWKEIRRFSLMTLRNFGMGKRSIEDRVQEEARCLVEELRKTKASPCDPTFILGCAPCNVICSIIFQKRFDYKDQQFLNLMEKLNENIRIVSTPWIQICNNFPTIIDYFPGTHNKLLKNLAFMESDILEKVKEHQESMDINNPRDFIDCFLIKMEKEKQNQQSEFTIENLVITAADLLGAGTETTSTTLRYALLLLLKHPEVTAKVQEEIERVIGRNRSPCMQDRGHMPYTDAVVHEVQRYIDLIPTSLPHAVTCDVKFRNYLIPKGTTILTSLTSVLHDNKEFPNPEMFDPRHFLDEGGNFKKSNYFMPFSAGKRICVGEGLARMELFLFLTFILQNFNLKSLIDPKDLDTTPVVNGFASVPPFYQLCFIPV

T2 sequence (P11712 whole entry): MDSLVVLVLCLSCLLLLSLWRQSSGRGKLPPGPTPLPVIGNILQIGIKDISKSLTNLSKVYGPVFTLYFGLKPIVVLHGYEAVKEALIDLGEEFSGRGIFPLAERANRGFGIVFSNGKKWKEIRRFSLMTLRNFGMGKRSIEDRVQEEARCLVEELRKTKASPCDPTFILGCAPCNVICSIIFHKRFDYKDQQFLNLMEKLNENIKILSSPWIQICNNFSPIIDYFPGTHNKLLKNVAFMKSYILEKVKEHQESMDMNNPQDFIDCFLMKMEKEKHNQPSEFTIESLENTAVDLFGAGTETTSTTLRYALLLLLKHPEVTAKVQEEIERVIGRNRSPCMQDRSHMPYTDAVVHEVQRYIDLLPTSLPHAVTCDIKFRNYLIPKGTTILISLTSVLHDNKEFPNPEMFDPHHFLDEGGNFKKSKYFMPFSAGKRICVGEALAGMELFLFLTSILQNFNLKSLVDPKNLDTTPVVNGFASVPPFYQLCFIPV
T1 sequence (P10635 whole entry): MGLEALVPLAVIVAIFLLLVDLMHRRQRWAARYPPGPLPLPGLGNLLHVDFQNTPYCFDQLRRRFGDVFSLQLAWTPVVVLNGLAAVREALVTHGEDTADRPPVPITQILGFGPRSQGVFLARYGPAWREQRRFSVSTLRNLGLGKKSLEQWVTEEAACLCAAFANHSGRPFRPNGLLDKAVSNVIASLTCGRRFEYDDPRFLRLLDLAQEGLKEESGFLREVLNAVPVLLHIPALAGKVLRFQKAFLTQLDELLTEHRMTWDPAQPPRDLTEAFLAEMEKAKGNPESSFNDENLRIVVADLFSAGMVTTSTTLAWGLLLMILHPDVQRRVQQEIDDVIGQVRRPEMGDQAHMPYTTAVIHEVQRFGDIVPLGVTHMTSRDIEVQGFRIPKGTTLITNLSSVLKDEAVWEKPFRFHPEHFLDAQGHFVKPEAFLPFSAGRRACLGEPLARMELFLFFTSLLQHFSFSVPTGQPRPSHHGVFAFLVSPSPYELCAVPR
T4 sequence (P08684 whole entry): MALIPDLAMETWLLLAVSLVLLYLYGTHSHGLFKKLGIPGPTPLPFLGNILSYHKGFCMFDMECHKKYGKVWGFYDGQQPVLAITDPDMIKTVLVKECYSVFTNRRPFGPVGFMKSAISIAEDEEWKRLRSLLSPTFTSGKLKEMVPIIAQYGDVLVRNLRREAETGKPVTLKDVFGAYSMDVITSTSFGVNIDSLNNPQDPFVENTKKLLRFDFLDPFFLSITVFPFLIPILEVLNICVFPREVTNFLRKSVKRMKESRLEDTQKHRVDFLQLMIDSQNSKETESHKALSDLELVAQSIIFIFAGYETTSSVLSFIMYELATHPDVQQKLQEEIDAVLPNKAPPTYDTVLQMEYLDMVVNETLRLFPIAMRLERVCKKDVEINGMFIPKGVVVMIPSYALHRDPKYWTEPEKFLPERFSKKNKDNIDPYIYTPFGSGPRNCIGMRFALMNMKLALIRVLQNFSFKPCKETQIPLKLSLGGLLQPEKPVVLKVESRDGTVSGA

Row | SMILES | IC50 (CYP2D6) [nM] | IC50 (CYP2C9) [nM] | IC50 (CYP1A2) [nM] | IC50 (CYP3A4) [nM] | IC50 (CYP2C19) [nM]
1 | C[C@H](c1ccc(F)cc1)n1cncc1CN1CCN(Cc2cnc(N3CCN(C)CC3)s2)C(=O)C1 [Compound 69, (R)-4-((1-(1-(4-fluorophenyl)ethyl)-1H-imidazol-5-yl)methyl)-1-((2-(4-methylpiperazin-1-yl)thiazol-5-yl)methyl) piperazin-2-one] | > 10000 | > 10000 | > 10000 | 56 | > 10000
2 | CCc1noc(C2(C)CCN(Cc3cncn3[C@H](C)c3ccc(F)cc3)CC2)n1 [Compound 9, (R)-3-ethyl-5-(1-((1-(1-(4-fluorophenyl)ethyl)-1H-imidazol-5-yl)methyl)-4-methylpiperidin-4-yl)-1,2,4-oxadiazole] | 2520 | 2510 | > 10000 | 21 | 2270
3 | C[C@H](c1ccc(F)cc1)n1cncc1CN1CCN(Cc2ccccc2Cn2cncn2)C(=O)C1 [Compound 62, (R)-1-(2-((1H-1,2,4-triazol-1-yl)methyl)benzyl)-4-((1-(1-(4-fluorophenyl)ethyl)-1H-imidazol-5-yl)methyl) piperazin-2-one] | 5640 | 6210 | 6940 | 43 | 1140
4 | CCC1(C#N)CCN(Cc2cncn2[C@H](C)c2ccc(F)cc2)CC1 [Compound 1, (R)-4-Ethyl-1-((1-(1-(4-fluorophenyl)ethyl)-1H-imidazol-5-yl)methyl)piperidine-4-carbonitrile] | > 10000 | 7370 | > 10000 | 20 | 6220
5 | C[C@H](c1ccc(F)cc1)n1cncc1CN1CCN(C(=O)c2ccccc2)C(c2ccccc2)C1 (single isomer, unassigned) [Compound 50a] | 4000 | 4360 | > 10000 | 16 | 4330
6 | CC(c1ccccc1-c1ccc(F)cc1)n1cncc1CN1CCS(=O)(=O)CC1 (stereo not drawn) [Compound 20, 4-((1-(1-(4′-fluoro-[1,1′-biphenyl]-2-yl)ethyl)-1H-imidazol-5-yl)methyl) thiomorpholin 1,1-dioxide] | > 10000 | > 10000 | > 10000 | 35 | 9910
7 | C[C@H](c1ccc(F)cc1)n1cncc1CN1CCN(C(=O)c2ccccc2)C(C(C)(C)C)C1 (stereo partly drawn) [Compound 55, (2-(tert-butyl)-4-((1-((R)-1-(4-fluorophenyl)ethyl)-1H-imidazol-5-yl)methyl)piperazin-1-yl)(phenyl) methanone] | 8030 | 2970 | > 10000 | 10 | 2390

Other lines, results leading:

Row | IC50 (CYP2D6) [nM] | IC50 (CYP2C9) [nM] | IC50 (CYP1A2) [nM] | IC50 (CYP3A4) [nM] | IC50 (CYP2C19) [nM] | SMILES
8 | 1620 | 5550 | > 10000 | 7 | 8400 | C[C@H](c1ccc(C#N)cc1)n1cncc1CN1CCN(c2nc3ccc(F)cc3o2)CC1 [Compound 30, (R)-4-(1-(5-((4-(6-fluorobenzo[d]oxazol-2-yl)piperazin-1-yl)methyl)-1H-imidazol-1-yl)ethyl)benzonitrile]
9 | 2520 | > 10000 | > 10000 | 23 | 1620 | C[C@H](c1ccc(F)cc1)n1cncc1CN1CCN(Cc2ccccc2)C(=O)C1 [Compound 61, (R)-1-benzyl-4-((1-(1-(4-fluorophenyl)ethyl)-1H-imidazol-5-yl)methyl)piperazin-2-one]
10 | 2950 | > 10000 | > 10000 | 50 | 4010 | CCS(=O)(=O)CCc1cnc(N2CCN(Cc3cncn3[C@H](C)c3ccc(F)cc3)CC2)s1 [Compound 43, (R)-2-(4-((1-(1-(4-fluoro-phenyl)ethyl)-1H-imidazol-5-yl)methyl)piperazin-1-yl)-5-(2-(ethyl-sulfonyl)ethyl) thiazole]
11 | 1930 | 7470 | > 10000 | 18 | 4270 | CC(c1ccccc1-c1ccc(F)cc1)n1cncc1CN1CCC(F)(F)C1 (stereo not drawn) [Compound 16, 5-((3,3-difluoropyrrolidin-1-yl)methyl)-1-(1-(4′-fluoro-[1,1′-biphenyl]-2-yl)ethyl)-1H-imidazole]
12 | 2520 | ≥ 10000 | > 10000 | 8 | ≥ 10000 | CC(c1ccc(S(C)(=O)=O)cc1)n1cncc1CN1CCN(c2nc3ccccc3o2)CC1 (stereo not drawn) [Compound 34, 2-(4-((1-(1-(4-(methylsulfonyl)phenyl)ethyl)-1H-imidazol-5-yl)methyl)piperazin-1-yl)benzo [d]oxazole]
